System: Glucokinase known as hexokinase IV (human GK isoform 1, pancreas form and human GK isoform 2, liver form)
Assay: Glucokinase enzymatic activity assay (G6PDH-coupled, NADH absorbance at 340 nm)
Type: biochemical
Settings: 5 mM glucose, 1 mM ATP, 37 nM GK, 10 min at room temperature
Experimental: Glucokinase known as hexokinase IV (human GK isoform 1, pancreas form and human GK isoform 2, liver form) was cloned into an expression vector pET15 fx (Novagen Co.), transformed to E. coli BL21 (DE3) (Invitrogen Co.) strain, expressed, and purified using a nickel column. Then, the glucokinase obtained from dialysis was used in the following assay.
Glucokinase assay was performed by measuring absorbance according to the conventional manner. Briefly speaking, glucokinase converts the substrate glucose to glucose-6-phosphate under certain conditions, and glucose-6-phosphate dehydrogenase irreversibly converts glucose-6-phosphate to gluconate-6-phosphate. During this procedure, NADH is formed, and its absorbance is measured to calculate the enzymatic activity.
In the measurement of the enzymatic activity, each compound was diluted by two-fold from the maximum to the minimum concentrations, and 2 μl of each solution was added to 96 well UV plate (BD bioscience). 60 μl of the first mixture (final concentrations 25 mM Hepes, 25 mM KCl, 2 mM MgCl2, 1 mM DTT) was added, and thoroughly mixed. 38 μl of the enzyme mixture (final concentrations 1 mM ATP, 1 mM NAD, 5 mM glucose, 0.85U G6PDH, 37 nM GK) was added (final volume 100 μl), and the mixture was reacted for 10 min at room temperature. The absorbance of NADH was measured at 340 nm using a UV spectrometer (Molecular Device).
The enzyme activating abilities of the compounds according to the present invention are represented as AC1.5 (the compound concentration at which the enzymatic activity is increased by 1.5 times, nM), which is in the range of 0.001 uM to 30 uM or less, preferably 0.001 uM to 10 uM, more preferably 0.001 uM to 1 uM.

Row | Compound | AC1.5 (the compound concentration at which the enzymatic activity is increased by 1.5 times) [nM]
1 | CN(C)C(=O)C[C@@H]1CSC(c2cc3cc(Cl)cc(NC4CCCC4)c3[nH]2)=N1 [Example 77, 2-[(R)-2-(5-chloro-7-cyclopentylamino-1H-indol-2-yl)-4,5-dihydro-thiazol-4-yl]-N,N-dimethyl-acetamide] | 27
2 | CN1CCN(C(=O)C[C@@H]2CSC(c3cc4cc(Cl)cc(NC5CCCC5)c4[nH]3)=N2)CC1 [Example 78, 2-[(R)-2-(5-chloro-7-cyclopentylamino-1H-indol-2-yl)-4,5-dihydro-thiazol-4-yl]-1-(4-methyl-piperazin-1-yl)-ethanone] | 25
3 | CN(C)C1CCN(C(=O)C[C@@H]2CSC(c3cc4cc(Cl)cc(NC5CCCC5)c4[nH]3)=N2)C1 (stereo partly drawn) [Example 79, 2-[(R)-2-(5-chloro-7-cyclopentylamino-1H-indol-2-yl)-4,5-dihydro-thiazol-4-yl]-1-(3-dimethylamino-pyrrolidin-1-yl)-ethanone] | 19
4 | O=C(C[C@@H]1CSC(c2cc3cc(Cl)cc(NC4CCCC4)c3[nH]2)=N1)N1CCC(O)C1 (stereo partly drawn) [Example 80, 2-[(R)-2-(5-chloro-7-cyclopentylamino-1H-indol-2-yl)-4,5-dihydro-thiazol-4-yl]-1-(3-hydroxy-pyrrolidin-1-yl)-ethanone] | 21
5 | O=C(C[C@@H]1CSC(c2cc3cc(Cl)cc(NC4CCCC4)c3[nH]2)=N1)N1CCCCC1 [Example 81, 2-[(R)-2-(5-chloro-7-cyclopentylamino-1H-indol-2-yl)-4,5-dihydro-thiazol-4-yl]-1-piperidin-1-yl-ethanone] | 6
6 | CNC(=O)C[C@@H]1CSC(c2cc3cc(Cl)cc(NC4CCOCC4)c3[nH]2)=N1 [Example 82, 2-{(R)-2-[5-chloro-7-(tetrahydro-pyran-4-ylamino)-1H-indol-2-yl]-4,5-dihydro-thiazol-4-yl}-N-methyl-acetamide] | 22
7 | O=C(C[C@@H]1CSC(c2cc3cc(Cl)cc(NC4CCOCC4)c3[nH]2)=N1)N1CCOCC1 [Example 83, 2-{(R)-2-[5-chloro-7-(tetrahydro-pyran-4-ylamino)-1H-indol-2-yl]-4,5-dihydro-thiazol-4-yl}-1-morpholin-4-yl-ethanone] | 45
8 | CN1CCN(C(=O)C[C@@H]2CSC(c3cc4cc(F)cc(NC5CCCC5)c4[nH]3)=N2)CC1 [Example 84, 2-[(R)-2-(7-cyclopentylamino-5-fluoro-1H-indol-2-yl)-4,5-dihydro-thiazol-4-yl]-1-(4-methyl-piperazin-1-yl)-ethanone] | 27
9 | O=C(C[C@@H]1CSC(c2cc3cc(F)cc(NC4CCCC4)c3[nH]2)=N1)NCCN1CCOCC1 [Example 85, 2-[(R)-2-(7-cyclopentylamino-5-fluoro-1H-indol-2-yl)-4,5-dihydro-thiazol-4-yl]-N-(2-morpholin-4-yl-ethyl)-acetamide] | 18
10 | CC(=O)N1CCN(C(=O)C[C@@H]2CSC(c3cc4cc(F)cc(NC5CCCC5)c4[nH]3)=N2)CC1 [Example 86, 1-(4-acetyl-piperazin-1-yl)-2-[(R)-2-(7-cyclopentylamino-5-fluoro-1H-indol-2-yl)-4,5-dihydro-thiazol-4-yl]-ethanone] | 23
11 | CNC(=O)C[C@@H]1CSC(c2cc3cc(OC)cc(NC4CCCC4)c3[nH]2)=N1 [Example 87, 2-[(R)-2-(7-cyclopentylamino-5-methoxy-1H-indol-2-yl)-4,5-dihydro-thiazol-4-yl]-N-methyl-acetamide] | 10
12 | COc1cc(NC2CCCC2)c2[nH]c(C3=N[C@H](CC(=O)N4CCOCC4)CS3)cc2c1 [Example 88, 2-[(R)-2-(7-cyclopentylamino-5-methoxy-1H-indol-2-yl)-4,5-dihydro-thiazol-4-yl]-1-morpholin-4-yl-ethanone] | 19
13 | CCNC(=O)C[C@@H]1CSC(c2cc3cccc(NC4CCCC4)c3[nH]2)=N1 [Example 89, 2-[(R)-2-(7-cyclopentylamino-1H-indol-2-yl)-4,5-dihydro-thiazol-4-yl]-N-ethyl-acetamide] | 32
14 | CNC(=O)C[C@@H]1CSC(c2cc3cccc(NC4CCCC4)c3[nH]2)=N1 [Example 90, 2-[(R)-2-(7-cyclopentylamino-1H-indol-2-yl)-4,5-dihydro-thiazol-4-yl]-N-methyl-acetamide] | 37
15 | O=C(C[C@@H]1CSC(c2cc3cccc(NC4CCCC4)c3[nH]2)=N1)N1CCOCC1 [Example 91, 2-[(R)-2-(7-cyclopentylamino-1H-indol-2-yl)-4,5-dihydro-thiazol-4-yl]-1-morpholin-4-yl-ethanone] | 72
16 | CNC(=O)C[C@@H]1CSC(c2cc3cccc(NC4CCOCC4)c3[nH]2)=N1 [Example 92, N-methyl-2-{(R)-2-[7-(tetrahydro-pyran-4-ylamino)-1H-indol-2-yl]-4,5-dihydro-thiazol-4-yl}-acetamide] | 112
17 | O=C(C[C@@H]1CSC(c2cc3cccc(NC4CCOCC4)c3[nH]2)=N1)N1CCOCC1 [Example 93, 1-morpholin-4-yl-2-{(R)-2-[7-(tetrahydro-pyran-4-ylamino)-1H-indol-2-yl]-4,5-dihydro-thiazol-4-yl}-ethanone] | 239
18 | CN(C)CC[C@@H]1CSC(c2cc3cc(Cl)cc(NC4CCCC4)c3[nH]2)=N1 [Example 94, {5-chloro-2-[(R)-4-(2-dimethylamino-ethyl)-4,5-dihydro-thiazol-2-yl]-1H-indol-7-yl}-cyclopentyl-amine] | 15
19 | CC(=O)N1CCN(CC[C@@H]2CSC(c3cc4cc(Cl)cc(NC5CCCC5)c4[nH]3)=N2)CC1 [Example 97, 1-(4-{2-[(R)-2-(5-chloro-7-cyclopentylamino-1H-indol-2-yl)-4,5-dihydro-thiazol-4-yl]-ethyl}-piperazin-1-yl)-ethanone] | 6
20 | CCS(=O)(=O)N1CCN(CC[C@@H]2CSC(c3cc4cc(Cl)cc(NC5CCCC5)c4[nH]3)=N2)CC1 [Example 98, (5-chloro-2-{(R)-4-[2-(4-ethanesulfonyl-piperazin-1-yl)-ethyl]-4,5-dihydro-thiazol-2-yl}-1H-indol-7-yl)-cyclopentyl-amine] | 7
21 | CN1CCN(CC[C@@H]2CSC(c3cc4cc(Cl)cc(NC5CCCC5)c4[nH]3)=N2)CC1 [Example 100, (5-chloro-2-{(R)-4-[2-(4-methyl-piperazin-1-yl)-ethyl]-4,5-dihydro-thiazol-2-yl}-1H-indol-7-yl)-cyclopentyl-amine] | 11
22 | OC1CCN(CC[C@@H]2CSC(c3cc4cc(Cl)cc(NC5CCCC5)c4[nH]3)=N2)CC1 [Example 101, 1-{2-[(R)-2-(5-chloro-7-cyclopentylamino-1H-indol-2-yl)-4,5-dihydro-thiazol-4-yl]-ethyl}-piperidin-4-ol] | 10
23 | O=C1CN(CC[C@@H]2CSC(c3cc4cc(Cl)cc(NC5CCCC5)c4[nH]3)=N2)CCN1 [Example 102] | 7
24 | CN(C)C1CCN(CC[C@@H]2CSC(c3cc4cc(Cl)cc(NC5CCCC5)c4[nH]3)=N2)C1 (stereo partly drawn) [Example 103, (5-chloro-2-{(R)-4-[2-(3-dimethylamino-pyrrolidin-1-yl)-ethyl]-4,5-dihydro-thiazol-2-yl}-1H-indol-7-yl)-cyclopentyl-amine] | 16
25 | Clc1cc(NC2CCCC2)c2[nH]c(C3=N[C@H](CCN4CCCCC4)CS3)cc2c1 [Example 104, {5-chloro-2-[(R)-4-(2-piperidin-1-yl-ethyl)-4,5-dihydro-thiazol-2-yl]-1H-indol-7-yl}-cyclopentyl-amine] | 13
26 | O=S1(=O)CCN(CC[C@@H]2CSC(c3cc4cc(Cl)cc(NC5CCCC5)c4[nH]3)=N2)CC1 [Example 105, (5-chloro-2-{(R)-4-[2-(1,1-dioxo-thiomorpholin-4-yl)-ethyl]-4,5-dihydro-thiazol-2-yl}-1H-indol-7-yl)-cyclopentyl-amine] | 6
27 | Clc1cc(NC2CCCC2)c2[nH]c(C3=N[C@H](CCn4cccn4)CS3)cc2c1 [Example 106, {5-chloro-2-[(R)-4-(2-pyrazol-1-yl-ethyl)-4,5-dihydro-thiazol-2-yl]-1H-indol-7-yl}-cyclopentyl-amine] | 14

— patent US8309586B2, “Glucokinase activators and pharmaceutical compositions containing the same as an active ingredient” (LG Life Sciences Ltd., priority 2007, dated 2012)
